One series relates to CD98. As to the kind of experiment: Nutrient transporter (CD98) down-regulation. The format is cell-based.
Series [1] can be described thus: Racemization/epimerization, deuterium incorporation and cyclization in protic solvents. The format is physicochemical. The note with it: dissolved in protic solvents such as water and MeOH; gives 1:1 mixture of enantiomers or epimers. On the procedure: In the presence of D2O at room temperature, deuterium was incorporated at C-2 confirming a fast enolization followed by β-elimination and ring closure. […] The incorporation of deuterium is complete in 30 min at pH=10, and in 3 hours at pH=7.
It was therefore decided to further investigate this new structural analog and we prepared the bicyclic enantiopure pyrrolizidine 17 bearing the aryloctyl appendage on C-3, in analogy with our lead compound 3 as well as the monocyclic variant 18, to check the effect of the substituent position and the nature of the azacycles (FIG. 7).

Another series relates to cancer cells. As to the kind of experiment: Cytotoxicity (IC50). The format is cell-based.

By inhibition is commonly meant the drop in the measured response relative to a control, in per cent. For orientation: IC50 means the point on the concentration scale where inhibition reaches its midpoint. Read a high IC50 as weaker potency. With `CCCCCCCCc1ccc(C(=O)C[C@@H]2C[C@@H](O)CN2)cc1.Cl` [Compound 11, (2S,4R)-4-Hydroxy-2-(2-(4-octylphenyl)-2-oxoethyl)pyrrolidin-1-ium chloride], in the series on CD98 (2.5 μM), the inhibition at 2.5 µM was found to be 22%. In the series with CD98 (10 μM), this compound showed an inhibition at 10 µM of 46%. Besides, in series [1], the “racemization / epimerization after N-Boc deprotection” value is “prone to racemization and epimerization”. In addition, the IC50 in the series on cancer cells amounted to 2.1 µM.

The values are drawn from patent US20210261583A1, “Synthetic Cytotoxic Molecules, Drugs, Methods of Their Synthesis and Methods of Treatment” (The Regents of the University of California, priority 2018, published 2021).
